Reference: patent US12576051B2, “Methods and composition for treating respiratory obstructive diseases” (The Regents of the University of California, priority 2019, dated 2026)
Counter-ions that a name gives are not always drawn.

Columns and labels:
porcine airway = experiment: Ex vivo porcine airway models (summary statement)
Source text: Abnormal mucus accumulation in airways has deleterious, and fatal consequence in patients suffering from respiratory obstructive diseases, such as cystic fibrosis (CF), COPD and asthma. Therefore, there is a need for therapies aimed at decreasing mucus accumulation to facilitate airway mucus clearance.

secreted Muc5ac mucin = experiment: Mucolytic activity on secreted Muc5ac mucin of open porcine trachea sections (western blot); settings: for native Muc5ac levels on epithelial luminal surfaces (immunoblot) / breaking down the mucus (secreted Muc5ac western blot): 2 mM; for native Muc5ac levels on epithelial luminal surfaces (immunoblot): HCO3-Ringer with PGE2 (1 uM), 10 minutes at 37° C., FIG. 18; for breaking down the mucus (secreted Muc5ac western blot): 5 minutes at 37° C., then 7% NaCl inhaled solution 5 mins, FIG. 19
Procedure: FIG. 18 provides the mucolytic activity of compounds on secreted Muc5ac mucin. Epithelial luminal surface of open porcine trachea sections (˜2 cm^2) were covered with HCO3-Ringer solution ([…]) containing PGE2 (1 uM), and alcian blue (0.02%), with or without compounds at a 2 mM final concentration, and incubated for 10 minutes at 37° C. Equal volumes of each collected sample were separated on vertical electrophoresis, and then transfer to an immobilon-P membrane for western blot analysis. […] Densitometric signal of the untreated sample, as control, was normalized to 100% (% arbitrary units).
Epithelial luminal surface of open porcine trachea sections (˜2 cm^2) were covered with […] of HCO3-Ringer solution containing PGE2 (1 uM), in the presence or absence of compounds at a 2 mM final concentration, and incubated for 5 minutes at 37° C. Afterwards, […] of sterile 7% NaCl inhaled solution was added and incubated for another 5 mins at 37° C. Equal volumes of each collected sample were separated on vertical electrophoresis, and then transferred to an immobilon-P membrane for western blot analysis. […] Densitometric signal of the non-treated sample, as control, was normalized to 100% (% arbitrary units).

[1] = tested on: Muc5ac mucin from porcine airway mucus; experiment: Mucolytic effect on Muc5ac mucin from porcine airway mucus (western blot, densitometry); format: biochemical; settings: 2 mM, 30 mins at 37° C.; compound preincubated in HCO3-Ringer, HCO3-Ringer/acetic acid or acetate buffer pH 4.5
Procedure: (§1) (Upper panel) Identification of Muc5ac mucin (black arrow) by western blot, from airway mucus sample collected in HCO3-Ringer and treated with or without 2 mM of compound 646 for 30 mins at 37° C. Lane CTRL, untreated sample as control. Lane Bic, sample treated with compound preincubated in HCO3-Ringer; lane Bic/Ac, sample treated with compound preincubated with 1:1 HCO3-Ringer/Acetic acid 0.1N; lane Ac, sample treated with compound preincubated in acetate buffer 1M, pH 4.5. Lower panel, densitometric analysis of the protein bands identified with the Muc5ac mucin antibody. Densitometric signal of the sample control (CTRL) was normalized as 100% (% arbitrary units).
as §1, with “647” for “646”, “4.5, as described under Methods.” for “4.5.”, “units). Control is pH 8, Bic 7.4, Bic/AC 6.9 AND AC 6.2” for “units).”
as §1, with “655” for “646”
as §1, with “compounds 656” for “compound 646”

[2] = tested on: respiratory secreted mucus; experiment: Mucolytic activity on respiratory secreted mucus of open porcine trachea sections (alcian blue); settings: 2 mM, HCO3-Ringer with PGE2 (1 uM) and alcian blue (0.02%), 10 minutes at 37° C., untreated showed clusters of secreted mucus
Procedure: FIG. 16 provides the mucolytic activity of compounds 646 and 647 on respiratory secreted mucus. Small sections of open porcine trachea (˜2 cm^2) were covered with HCO3-Ringer solution ([…]) containing PGE2 (1 uM) and alcian blue (0.02%), with or without compounds at a 2 mM final concentration, and then incubated for 10 minutes at 37° C.
FIG. 17 provides the mucolytic activity of compounds 655 and 656 on respiratory secreted mucus. Small sections of open porcine trachea (˜2 cm^2) were covered with HCO3-Ringer solution ([…]) containing PGE2 (1 uM) and alcian blue (0.02%), with or without compounds at a 2 mM final concentration, and then incubated for 10 minutes at 37° C.

[3] = cited from earlier work

NCCSSCCN [cystamine, reference compound]
accumulation of viscous mucus and mucociliary clearance (porcine airway): prevented accumulation of viscous mucus and improves mucociliary clearance

Cl.[2H]C([2H])(S)CN [Compound 656, 2-mercaptoethan-2,2-d2-1-aminium chloride]
native Muc5ac levels on epithelial luminal surfaces (immunoblot) (secreted Muc5ac mucin): decreased native Muc5ac levels
influence of acidic and basic conditions on mucolytic activity on porcine Muc5ac mucin [1]: enhanced under acidic conditions
accumulation of viscous mucus and mucociliary clearance (porcine airway): prevented accumulation of viscous mucus and improves mucociliary clearance
appearance of secreted mucus on trachea sections [2]: dispersed secreted mucus

CC(=O)N[C@@H](CS)C(=O)O [NAC, N-acetylcysteine, reference compound]
efficacy with respect to improvement of lung function or reduction in pulmonary exacerbations ([3]; inhaled, CF and COPD): do not support the efficacy

Cl.Cl.[2H]C([2H])(CN)SSC([2H])([2H])CN [Compound 655, 2,2′-disulfanediylbis(ethan-2,2-d2-1-aminium) chloride]
breaking down the mucus (secreted Muc5ac western blot) (secreted Muc5ac mucin): consistently works well in breaking down the mucus
native Muc5ac levels on epithelial luminal surfaces (immunoblot) (secreted Muc5ac mucin): decreased native Muc5ac levels
mucolytic activity in comparison (secreted Muc5ac mucin; comparison between deuterated cystamine compounds): better mucolytic activity than Compound 647
influence of acidic and basic conditions on mucolytic activity on porcine Muc5ac mucin [1]: enhanced under acidic conditions
accumulation of viscous mucus and mucociliary clearance (porcine airway): prevented accumulation of viscous mucus and improves mucociliary clearance
appearance of secreted mucus on trachea sections [2]: dispersed secreted mucus

[2H]C(CN)SSC([2H])CN (stereo not drawn) [Compound 647, 2,2′-disulfanediylbis(ethan-2-d-1-amine) dihydrochloride]
breaking down the mucus (secreted Muc5ac western blot) (secreted Muc5ac mucin): consistently works well in breaking down the mucus
native Muc5ac levels on epithelial luminal surfaces (immunoblot) (secreted Muc5ac mucin): decreased native Muc5ac levels
influence of acidic and basic conditions on mucolytic activity on porcine Muc5ac mucin [1]: enhanced under acidic conditions
accumulation of viscous mucus and mucociliary clearance (porcine airway): prevented accumulation of viscous mucus and improves mucociliary clearance
appearance of secreted mucus on trachea sections ([2]; dihydrochloride): dispersed clusters of secreted mucus

CC(C)(C)c1cc(C(C)(C)C)c(NC(=O)c2c[nH]c3ccccc3c2=O)cc1O [Ivacaftor, reference compound]
improvement of lung function ([3]; taken by mouth, CF with ivacaftor-responsive mutations): about 10%

B1: rhDNase: recombinant human DNase, an enzyme that breaks down extracellular DNA in mucus (protein, UniProt P24855 23-282, looked up)
Deoxyribonuclease-1: LKIAAFNIQTFGETKMSNATLVSYIVQILSRYDIALVQEVRDSHLTAVGKLLDNLNQDAPDTYHYVVSEPLGRNSYKERYLFVYRPDQVSAVDSYYYDDGCEPCGNDTFNREPAIVRFFSRFTEVREFAIVPLHAAPGDAVAEIDALYDVYLDVQEKWGLEDVMLMGDFNAGCSYVRPSQWSSIRLWTSPTFQWLIPDSADTTATPTHCAYDRIVVAGMLLRGAVVPDSALPFNFQAAYGLSDQLAQAISDHYPVEVMLK
clinical benefit ([3]; inhaled, adult CF subjects): substantial clinical benefits
efficacy ([3]; obstructive diseases other than CF): ineffective
